Data: ChEMBL document CHEMBL1201862, “PubChem BioAssay data set” (2004)
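Cells were grown in 96-well plates and exposed to each compound for 48 hours at five concentrations; endpoints were interpolated linearly between bracketing concentrations, or set to the highest concentration if not reached. Abbreviation: GI50, concentration required for 50% inhibition of growth.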 Active and inactive are the calls of the source. Rule as the data show it: active = GI50 up to about 1.1 µM and inactive = higher.

Legend:
Test in all cases: NCI-60 cell line screen, 48 h
DLD-1 = test system: DLD-1
DMS-114 = test system: DMS-114
DMS-273 = test system: DMS-273
KM-20L2 = test system: KM-20L2
LXFL 529 = test system: LXFL 529
M19-MEL = test system: M19-MEL
RXF 631 = test system: RXF 631
SNB-78 = test system: SNB-78
XF498 = test system: XF498

Structure (SMILES)	GI50 (DLD-1)	GI50 (DMS-114)	GI50 (DMS-273)	GI50 (KM-20L2)	GI50 (LXFL 529)	GI50 (M19-MEL)	GI50 (RXF 631)	GI50 (SNB-78)	GI50 (XF498)
CC1(Br)C(=O)NC(=O)N([C@H]2C[C@H](O)[C@@H](CO)O2)C1N=[N+]=[N-] (some centres not stated)	> 100 µM (inactive)	> 91.2 µM (inactive)	> 100 µM (inactive)	> 100 µM (inactive)	> 100 µM (inactive)	> 100 µM (inactive)	> 100 µM (inactive)	> 100 µM (inactive)	> 100 µM (inactive)
C/C(=N\NC(=O)CC(=O)N(C(=O)c1ccc(Cl)cc1)c1ccc(C)cc1)c1ccccc1O	74.6 µM (inactive)	97.1 µM (inactive)	31.7 µM (inactive)	18 µM (inactive)	> 100 µM (inactive)	> 100 µM (inactive)	> 100 µM (inactive)	57.3 µM (inactive)	> 100 µM (inactive)
COc1cc(C(C)O)c[n+](CCc2c[nH]c3ccccc23)c1 (configuration not stated)	> 100 µM (inactive)	> 100 µM (inactive)	> 100 µM (inactive)	56.9 µM (inactive)	> 100 µM (inactive)	> 100 µM (inactive)	> 100 µM (inactive)		> 100 µM (inactive)
NC1=NN(c2ccccc2)C(=O)C1C(=O)C(=O)NC1C2CC3CC(C2)CC1C3 (configuration not stated)	> 100 µM (inactive)	> 100 µM (inactive)	> 100 µM (inactive)	> 100 µM (inactive)	66.1 µM (inactive)	> 100 µM (inactive)	> 100 µM (inactive)	> 100 µM (inactive)	
CC(=O)/C(=C\c1ccccc1O)C(=O)Nc1ccccc1C	20.1 µM (inactive)	24.3 µM (inactive)			22.3 µM (inactive)	27.7 µM (inactive)		23.4 µM (inactive)	13.9 µM (inactive)
Cn1c(=O)c(C(=O)NC(=O)OCc2ccccc2)cn(CCSCCOC(=O)NCCCCCCNC(=O)OCCSCCn2cc(C(=O)NC(=O)OCc3ccccc3)c(=O)n(C)c2=O)c1=O	> 100 µM (inactive)	78 µM (inactive)	> 100 µM (inactive)	> 100 µM (inactive)	> 100 µM (inactive)	> 100 µM (inactive)	> 100 µM (inactive)	> 100 µM (inactive)	16.9 µM (inactive)
COC1CC(Br)(C#N)C1 (configuration not stated)	> 100 µM (inactive)	> 100 µM (inactive)		> 100 µM (inactive)		> 100 µM (inactive)		> 100 µM (inactive)	
O=[PH](O)c1cccnc1	> 100 µM (inactive)	> 100 µM (inactive)	> 100 µM (inactive)	> 100 µM (inactive)	> 100 µM (inactive)	> 100 µM (inactive)	> 100 µM (inactive)	> 100 µM (inactive)	> 100 µM (inactive)
O=P1(N(CCCl)CCCl)NCCCO1 (configuration not stated) [CYCLOPHOSPHAMIDE ANHYDROUS]	> 250 µM (inactive)	> 250 µM (inactive)	> 246 µM (inactive)	> 250 µM (inactive)	> 250 µM (inactive)	218 µM (inactive)	> 250 µM (inactive)	> 209 µM (inactive)	177 µM (inactive)
O=C(NO)c1ccc([N+](=O)[O-])cc1	51.3 µM (inactive)	30.7 µM (inactive)	43.8 µM (inactive)	62.2 µM (inactive)	25.1 µM (inactive)	52.2 µM (inactive)			73.1 µM (inactive)
CN1CC[C@]2(C)c3c(O)cccc3CC3CCCC1C32C (some centres not stated)	> 100 µM (inactive)	> 100 µM (inactive)		> 100 µM (inactive)	> 100 µM (inactive)	> 100 µM (inactive)	> 100 µM (inactive)	> 100 µM (inactive)	59.6 µM (inactive)
Cc1ccc(N2C(=O)C(Cl)=C(Cl)C2=O)cc1	20.9 µM (inactive)	19 µM (inactive)	62.5 µM (inactive)	24.2 µM (inactive)	19.1 µM (inactive)	21 µM (inactive)	21.1 µM (inactive)	24.2 µM (inactive)	
COc1cc(/C=C(\NC(=O)c2ccccc2)c2nc3ccc4c(c3[nH]2)C(=O)c2ccccc2C4=O)cc(OC)c1OC	7.11 µM (inactive)	32.4 µM (inactive)	40.7 µM (inactive)	> 100 µM (inactive)	49 µM (inactive)	> 100 µM (inactive)	58.7 µM (inactive)	76.7 µM (inactive)	> 100 µM (inactive)
N#Cc1ccc(C2SCc3nc4ccccc4n32)cc1 (configuration not stated)	> 100 µM (inactive)		> 100 µM (inactive)	52.7 µM (inactive)	45.4 µM (inactive)	> 100 µM (inactive)		> 100 µM (inactive)	> 100 µM (inactive)
CCOCC(=O)N[C@H]1CCc2cc(OC)c(OC)c(OC)c2-c2ccc(SC)c(=O)cc21	< 0.01 µM (active)	< 0.01 µM (active)	< 0.01 µM (active)	< 0.01 µM (active)	< 0.01 µM (active)	< 0.01 µM (active)	< 0.01 µM (active)	< 0.01 µM (active)	< 0.0224 µM (active)
COc1ccc(/C=C2\C(=O)N(C(=O)c3ccc(NC(C)=O)cc3)N=C2C)cc1	> 10 µM (inactive)	> 100 µM (inactive)	> 100 µM (inactive)			> 100 µM (inactive)		> 100 µM (inactive)	> 100 µM (inactive)
CSc1nc(NC2OC(COC(C)=O)C(OC(C)=O)C(OC(C)=O)C2OC(C)=O)c2c(OC(C)=O)c(C)c(=O)oc2n1 (configuration not stated)	> 100 µM (inactive)	> 100 µM (inactive)		> 100 µM (inactive)	> 100 µM (inactive)	> 100 µM (inactive)		> 100 µM (inactive)	> 100 µM (inactive)
CN(C)Cc1[nH]c2ccccc2c1C(=O)c1ccccc1	> 100 µM (inactive)		> 100 µM (inactive)	64.9 µM (inactive)	> 100 µM (inactive)				97.9 µM (inactive)
CC(=O)SCCC1c2[nH]c3ccccc3c2CCN1O (configuration not stated)	> 100 µM (inactive)	74.5 µM (inactive)	86.1 µM (inactive)	> 100 µM (inactive)	56.4 µM (inactive)	> 100 µM (inactive)			
Cc1ccc(S(=O)(=O)N(C=O)N=C2CCN(Cc3ccccc3)CC2)cc1	> 100 µM (inactive)		> 100 µM (inactive)	> 100 µM (inactive)	> 100 µM (inactive)	> 100 µM (inactive)	> 100 µM (inactive)	> 100 µM (inactive)	> 100 µM (inactive)
